Results: patent US10577363B2, “Substituted piperidine compounds” (EPIZYME, INC., priority 2014, dated 2020)

Columns and labels:
[1] = target: T1, SMYD3 (Homo sapiens (Human), UniProt Q9H7B4); assay: SMYD3 biochemical assay (SPA, 3H-SAM methylation of MEKK2 protein substrate); conditions: average of n = 1 to n = 50; read-out: SMYD3 Biochem IC50
Method in brief: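 Tritium incorporation into GST-MEKK2 is counted by scintillation proximity after citric acid bead capture. Native human SMYD3 is preincubated with test compound for 30 min at room temperature at pH 8.0 (Tris-Cl, TCEP, BSG, Tween 20) before 3H-SAM and substrate are added; cold SAM at 100 uM final stops turnover.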

[2] = target: T1, SMYD3; assay: SMYD3 cell assay (Trimethyl-MEKK2 In-Cell Western in 293T/17 cells); assay type: cell-based; conditions: average of n = 1 to n = 50; read-out: SMYD3 Cell IC50
Method in brief: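 In-Cell Western ratio of trimethyl-Lys260 MEKK2 to anti-flag signal; percent inhibition from DMSO and maximum-inhibition controls, IC50 by non-linear regression, triplicates.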

T1 sequence (Q9H7B4 whole entry): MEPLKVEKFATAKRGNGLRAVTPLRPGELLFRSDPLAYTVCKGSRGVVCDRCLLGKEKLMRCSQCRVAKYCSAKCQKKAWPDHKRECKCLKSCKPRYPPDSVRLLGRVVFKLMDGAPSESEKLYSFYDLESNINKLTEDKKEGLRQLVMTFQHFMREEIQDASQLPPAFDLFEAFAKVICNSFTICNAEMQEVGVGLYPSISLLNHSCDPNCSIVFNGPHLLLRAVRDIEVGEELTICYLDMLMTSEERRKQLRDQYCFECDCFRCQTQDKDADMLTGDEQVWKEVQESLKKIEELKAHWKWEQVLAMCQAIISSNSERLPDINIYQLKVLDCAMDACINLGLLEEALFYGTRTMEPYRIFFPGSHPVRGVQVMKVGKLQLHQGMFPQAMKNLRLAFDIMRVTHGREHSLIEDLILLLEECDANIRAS

SMILES	IC50 [1] [nM]	IC50 [2] [nM]
CN1CCC(CS(=O)(=O)N2CC[C@H](NC(=O)c3cc(C4CC4)on3)C[C@@H]2Cc2ccccc2)CC1 [compound 682, N-((2S,4S)-2-benzyl-1-(((1-methylpiperidin-4-yl)methyl)sulfonyl)piperidin-4-yl)-5-cyclopropylisoxazole-3-carboxamide]	121	1250
C[C@@H]1C[C@H](NC(=O)c2cc(C3CC3)on2)CCN1C(=O)c1ccc(N2CCNCC2)nc1 [compound 683, 5-cyclopropyl-N-((2R,4R)-2-methyl-1-(6-(piperazin-1-yl)nicotinoyl)piperidin-4-yl)isoxazole-3-carboxamide]	122	1780
CN1CCN(S(=O)(=O)N2[C@@H]3CC[C@H]2C[C@@H](NC(=O)c2cc(C4CC4)on2)C3)CC1CO (stereo partly drawn) [compound 684, 5-cyclopropyl-N-((1R,3r,5S)-8-((3-(hydroxymethyl)-4-methylpiperazin-1-yl)sulfonyl)-8-azabicyclo[3.2.1]octan-3-yl)isoxazole-3-carboxamide]	122	923
C[C@@H]1CN(S(=O)(=O)N2CCN(C)CC2)[C@H](C)C[C@@H]1NC(=O)c1cc(C2CC2)on1 [compound 685, 5-cyclopropyl-N-((2R,4S,5R)-2,5-dimethyl-1-((4-methylpiperazin-1-yl)sulfonyl)piperidin-4-yl)isoxazole-3-carboxamide]	124	254
C[C@@H]1C[C@H](NC(=O)c2cc(C3CC3)on2)CCN1C(=O)c1ccc(CN(C)C)cc1 [compound 686, 5-cyclopropyl-N-((2R,4R)-1-(4-((dimethylamino)methyl)benzoyl)-2-methylpiperidin-4-yl)isoxazole-3-carboxamide]	129	1540
CN(C1CCNCC1)S(=O)(=O)N1[C@@H]2CCC[C@H]1C[C@H](NC(=O)c1cc(C3CC3)on1)C2 [compound 687, 5-cyclopropyl-N-((1R,3s,5S)-9-(N-methyl-N-(piperidin-4-yl)sulfamoyl)-9-azabicyclo[3.3.1]nonan-3-yl)isoxazole-3-carboxamide]	130	1710
CC1CCCN1CCS(=O)(=O)N1[C@@H]2CC[C@H]1C[C@@H](NC(=O)c1cc(C3CC3)on1)C2 (stereo partly drawn) [compound 689, 5-cyclopropyl-N-((1R,3r,5S)-8-((2-(2-methylpyrrolidin-1-yl)ethyl)sulfonyl)-8-azabicyclo[3.2.1]octan-3-yl)isoxazole-3-carboxamide]	131	764
O=C(N[C@H]1C[C@H]2CC[C@@H](C1)N2S(=O)(=O)CCN1CCC(O)C1)c1cc(C2CC2)on1 (stereo partly drawn) [compound 690, 5-cyclopropyl-N-((1R,3r,5S)-8-((2-(3-hydroxypyrrolidin-1-yl)ethyl)sulfonyl)-8-azabicyclo[3.2.1]octan-3-yl)isoxazole-3-carboxamide]	138	553
CC1CN(S(=O)(=O)N2[C@@H]3CC[C@H]2C[C@@H](NC(=O)c2cc(C4CC4)on2)C3)CC(C)N1 (stereo partly drawn) [compound 692, 5-cyclopropyl-N-((1R,3r,5S)-8-((3,5-dimethylpiperazin-1-yl)sulfonyl)-8-azabicyclo[3.2.1]octan-3-yl)isoxazole-3-carboxamide]	148	637
CC1CN(S(=O)(=O)N2[C@@H]3CC[C@H]2C[C@@H](NC(=O)c2cc(C4CC4)on2)C3)CC(C)N1C (stereo partly drawn) [compound 702, 5-cyclopropyl-N-((1R,3r,5S)-8-((3,4,5-trimethylpiperazin-1-yl)sulfonyl)-8-azabicyclo[3.2.1]octan-3-yl)isoxazole-3-carboxamide]	215	1240
CN(CCCS(=O)(=O)N1[C@@H]2CC[C@H]1C[C@@H](NC(=O)c1cc(C3CC3)on1)C2)CCN1CCOCC1 [compound 703, 5-cyclopropyl-N-((1R,3r,5S)-8-((3-(methyl(2-morpholinoethyl)amino)propyl)sulfonyl)-8-azabicyclo[3.2.1]octan-3-yl)isoxazole-3-carboxamide]	217	804
O=C(N[C@H]1C[C@H]2CC[C@@H](C1)N2S(=O)(=O)CCNCCc1ccccc1)c1cc(C2CC2)on1 [compound 705, 5-cyclopropyl-N-((1R,3r,5S)-8-((2-(phenethylamino)ethyl)sulfonyl)-8-azabicyclo[3.2.1]octan-3-yl)isoxazole-3-carboxamide]	225	1510
CN1CCC(N(C)S(=O)(=O)N2[C@@H]3CCC[C@@H]2CC(NC(=O)c2cc(C4CC4)on2)C3)CC1 (stereo partly drawn) [compound 709, 5-cyclopropyl-N-((1R,5R)-9-(N-methyl-N-(1-methylpiperidin-4-yl)sulfamoyl)-9-azabicyclo[3.3.1]nonan-3-yl)isoxazole-3-carboxamide]	258	1920

Continued, values first:

IC50 [1] [nM]	IC50 [2] [nM]	SMILES
131	783	C[C@@H]1CN(S(=O)(=O)CCN)[C@H](C)C[C@@H]1NC(=O)c1cc(C2CC2)on1 [compound 688, N-((2R,4S,5R)-1-((2-aminoethyl)sulfonyl)-2,5-dimethylpiperidin-4-yl)-5-cyclopropylisoxazole-3-carboxamide]
144	1950	O=C(N[C@H]1CCN(S(=O)(=O)CC2CCNCC2)[C@H](Cc2ccccc2)C1)c1cc(C2CC2)on1 [compound 691, N-((2R,4S)-2-benzyl-1-((piperidin-4-ylmethyl)sulfonyl)piperidin-4-yl)-5-cyclopropylisoxazole-3-carboxamide]
156	4040	C[C@H]1CN(S(=O)(=O)CC2CCN(CCN3CCCCC3)CC2)CC[C@H]1NC(=O)c1cc(C2CC2)on1 [compound 693, 5-cyclopropyl-N-((3S,4R)-3-methyl-1-(((1-(2-(piperidin-1-yl)ethyl)piperidin-4-yl)methyl)sulfonyl)piperidin-4-yl)isoxazole-3-carboxamide]
157	952	C[C@H]1CN(S(=O)(=O)CCN)[C@@H](C)C[C@H]1NC(=O)c1cc(C2CC2)on1 [compound 694, N-((2S,4R,5S)-1-((2-aminoethyl)sulfonyl)-2,5-dimethylpiperidin-4-yl)-5-cyclopropylisoxazole-3-carboxamide]
169	1830	C[C@H]1C[C@@H](NC(=O)c2cc(C3CC3)on2)CCN1S(=O)(=O)C(CCN)c1ccccc1 (stereo partly drawn) [compound 695, N-((2S,4S)-1-((3-amino-1-phenylpropyl)sulfonyl)-2-methylpiperidin-4-yl)-5-cyclopropylisoxazole-3-carboxamide]
170	1550	C[C@H]1CN(S(=O)(=O)NC2CCN(Cc3ccccc3)CC2)CC[C@H]1NC(=O)c1cc(C2CC2)on1 [compound 696, N-((3S,4R)-1-(N-(1-benzylpiperidin-4-yl)sulfamoyl)-3-methylpiperidin-4-yl)-5-cyclopropylisoxazole-3-carboxamide]
178	1560	C[C@H]1C[C@@H](NC(=O)c2cc(C3CC3)on2)CCN1S(=O)(=O)CCCNc1ccccc1 [compound 697, 5-cyclopropyl-N-((2S,4S)-2-methyl-1-((3-(phenylamino)propyl)sulfonyl)piperidin-4-yl)isoxazole-3-carboxamide]
179	746	C[C@H]1CN(S(=O)(=O)CC2CCN(CCC(F)(F)F)CC2)CC[C@H]1NC(=O)c1cc(C2CC2)on1 [compound 698, 5-cyclopropyl-N-((3S,4R)-3-methyl-1-(((1-(3,3,3-trifluoropropyl)piperidin-4-yl)methyl)sulfonyl)piperidin-4-yl)isoxazole-3-carboxamide]
193	658	CC1CN(S(=O)(=O)N2CC[C@H](NC(=O)c3cc(C4CC4)on3)C[C@@H]2C)CCN1C (stereo partly drawn) [compound 699, 5-cyclopropyl-N-((2S,4S)-1-((3,4-dimethylpiperazin-1-yl)sulfonyl)-2-methylpiperidin-4-yl)isoxazole-3-carboxamide]
194	2110	O=C(N[C@H]1CCN(S(=O)(=O)CC2CCCNC2)[C@@H](Cc2ccccc2)C1)c1cc(C2CC2)on1 (stereo partly drawn) [compound 700, N-((2S,4S)-2-benzyl-1-((piperidin-3-ylmethyl)sulfonyl)piperidin-4-yl)-5-cyclopropylisoxazole-3-carboxamide]
210	1840	CC1CN(S(=O)(=O)N2CC[C@H](NC(=O)c3cc(C4CC4)on3)C[C@@H]2C)CC(C)N1 (stereo partly drawn) [compound 701, 5-cyclopropyl-N-((2S,4S)-1-((3,5-dimethylpiperazin-1-yl)sulfonyl)-2-methylpiperidin-4-yl)isoxazole-3-carboxamide]
238	1210	C[C@H]1C[C@@H](NC(=O)c2cc(C3CC3)on2)CCN1S(=O)(=O)c1ccncc1 [compound 706, 5-cyclopropyl-N-((2S,4S)-2-methyl-1-(pyridin-4-ylsulfonyl)piperidin-4-yl)isoxazole-3-carboxamide]
247	2540	O=C(N[C@H]1CCN(S(=O)(=O)CC2CCN(CCCO)CC2)[C@@H](Cc2ccccc2)C1)c1cc(C2CC2)on1 [compound 707, N-((2S,4S)-2-benzyl-1-(((1-(3-hydroxypropyl)piperidin-4-yl)methyl)sulfonyl)piperidin-4-yl)-5-cyclopropylisoxazole-3-carboxamide]
252	1660	C[C@H]1C[C@@H](NC(=O)c2cc(C3CC3)on2)CCN1S(=O)(=O)c1cccc(N)n1 [compound 708, N-((2S,4S)-1-((6-aminopyridin-2-yl)sulfonyl)-2-methylpiperidin-4-yl)-5-cyclopropylisoxazole-3-carboxamide]
